pIC50: −log10 of the molar value. Counter-ions that a name gives are not always drawn.
Columns and labels:
A549 cells = experiment: Inhibition of PGE2 production in A549 cell (IL-1β stimulated); type: cell-based, human; settings: Homo sapiens, A549, 24 h, IL-1β 5 ng/well, PGE2 in culture medium
Summary of the method: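 After IL-1β (5 ng/well) stimulation for 24 h at 37 °C, following a 60-min compound pretreatment in RPMI with 3% FBS, medium PGE2 (HTRF) and PGF2α (EIA) from human A549 cells were quantified. 100% activity set as IL-1β-induced minus basal production; IC50 calculated.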

human mPGES-1 = human mPGES-1 (Homo sapiens (Human), UniProt O14684); experiment: mPGES-1 inhibiting activity (microsome fractions, PGE2 by HTRF); type: biochemical; settings: microsomes from CHO-K1 cells transfected with human mPGES-1; PGH2 1 μM, 4° C., 60 seconds; read-out: mPGES-1 Inhibition IC50
Summary of the method: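 PGE2 formation read by HTRF after 60 s at 4 °C with 1 μM PGH2 substrate, following 20 min compound preincubation (1% DMSO) with human mPGES-1 microsomes from transfected CHO-K1 cells. Buffer: potassium phosphate, reduced glutathione, pH 7.4; IC50 from activity relative to enzyme-free blank.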

Chain of human mPGES-1 (O14684 whole entry): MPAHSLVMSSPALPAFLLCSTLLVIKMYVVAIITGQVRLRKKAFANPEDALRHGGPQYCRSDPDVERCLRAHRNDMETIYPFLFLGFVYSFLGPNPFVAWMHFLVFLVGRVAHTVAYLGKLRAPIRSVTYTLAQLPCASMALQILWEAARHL

pIC50 (A549 cells)	pIC50 (human mPGES-1)	SMILES
7.37	8.21	COCc1nc2c(C(=O)Nc3cccc(Cl)c3C)cc(NC(=O)c3ccccc3Br)cc2[nH]1 [Example 97, 6-{[(2-Bromophenyl)carbonyl]amino}-N-(3-chloro-2-methylphenyl)-2-(methoxymethyl)-1H-benzimidazole-4-carboxamide hydrochloride]
7.92	8.22	COCc1nc2c(C(=O)Nc3cccc(Cl)c3C)cc(NC(=O)c3c(Cl)cccc3Cl)cc2[nH]1 [Example 98, N-(3-Chloro-2-methylphenyl)-6-{[(2,6-dichlorophenyl)carbonyl]amino}-2-(methoxymethyl)-1H-benzimidazole-4-carboxamide hydrochloride]
7.72	8.43	COCc1nc2c(C(=O)Nc3cccc(Cl)c3C)cc(NC(=O)c3cc(Cl)ccc3Cl)cc2[nH]1 [Example 99, N-(3-Chloro-2-methylphenyl)-6-{[(2,5-dichlorophenyl)carbonyl]amino}-2-(methoxymethyl)-1H-benzimidazole-4-carboxamide hydrochloride]
6.91	7.48	COCc1nc2c(C(=O)Nc3cccc(Cl)c3C)cc(NC(=O)c3cccc(F)c3Cl)cc2[nH]1 [Example 100, 6-{[(2-Chloro-3-fluorophenyl)carbonyl]amino}-N-(3-chloro-2-methylphenyl)-2-(methoxymethyl)-1H-benzimidazole-4-carboxamide hydrochloride]
6.93	7.11	COCc1nc2c(C(=O)Nc3cccc(Cl)c3C)cc(NC(=O)c3c(F)ccc(F)c3Cl)cc2[nH]1 [Example 101, 6-{[(2-Chloro-3,6-difluorophenyl)carbonyl]amino}-N-(3-chloro-2-methylphenyl)-2-(methoxymethyl)-1H-benzimidazole-4-carboxamide hydrochloride]
7.31	8.80	COCc1nc2c(C(=O)Nc3cccc(Cl)c3C)cc(NC(=O)c3c(Cl)cccc3Br)cc2[nH]1 [Example 102, 6-{[(2-Bromo-6-chlorophenyl)carbonyl]amino}-N-(3-chloro-2-methylphenyl)-2-(methoxymethyl)-1H-benzimidazole-4-carboxamide hydrochloride]
7.22	8.55	COCc1nc2c(C(=O)Nc3cccc(Cl)c3C)cc(NC(=O)c3c(F)cccc3Br)cc2[nH]1 [Example 103, 6-{[(2-Bromo-6-fluorophenyl)carbonyl]amino}-N-(3-chloro-2-methylphenyl)-2-(methoxymethyl)-1H-benzimidazole-4-carboxamide hydrochloride]
7.15	8.54	COCc1nc2c(C(=O)Nc3cccc(Cl)c3C)cc(NC(=O)c3c(C)cccc3Cl)cc2[nH]1 [Example 104, N-(3-Chloro-2-methylphenyl)-6-{[(2-chloro-6-methylphenyl)carbonyl]amino}-2-(methoxymethyl)-1H-benzimidazole-4-carboxamide hydrochloride]
6.49	8.05	COCc1nc2c(C(=O)Nc3cccc(Cl)c3C)cc(NC(=O)c3ccc(C)cc3Cl)cc2[nH]1 [Example 105, N-(3-Chloro-2-methylphenyl)-6-{[(2-chloro-4-methylphenyl)carbonyl]amino}-2-(methoxymethyl)-1H-benzimidazole-4-carboxamide hydrochloride]
7.20	8.35	COCc1nc2c(C(=O)Nc3cccc(Cl)c3C)cc(NC(=O)c3cc(Br)ccc3Cl)cc2[nH]1 [Example 106, 6-{[(5-Bromo-2-chlorophenyl)carbonyl]amino}-N-(3-chloro-2-methylphenyl)-2-(methoxymethyl)-1H-benzimidazole-4-carboxamide hydrochloride]
7.38	8.82	COCc1nc2c(C(=O)Nc3cccc(Cl)c3C)cc(NC(=O)c3cc(Cl)ccc3Br)cc2[nH]1 [Example 107, 6-{[(2-Bromo-5-chlorophenyl)carbonyl]amino}-N-(3-chloro-2-methylphenyl)-2-(methoxymethyl)-1H-benzimidazole-4-carboxamide hydrochloride]

From patent US9216968B2, “Heterocyclic derivative and pharmaceutical drug” (NIPPON SHINYAKU CO., LTD., priority 2011, dated 2015)
